Laboratory results published in article PMC8205030, “Methoxy and bromo scans on N-(5-methoxyphenyl) methoxybenzenesulphonamides reveal potent cytotoxic compounds, especially against the human breast adenocarcinoma MCF7 cell line” (Journal of Enzyme Inhibition and Medicinal Chemistry, 2021).
Like-named read-outs stand apart in the source and are kept apart here.

Experiments:
[1] = tested on: HT-29 (human colon carcinoma) cells; assay: Cell growth assay (XTT), HT-29, alone or with verapamil; format: cell-based
[2] = tested on: HeLa cells; assay: Cell cycle analysis (PI, flow cytometry), HeLa; format: cell-based, human
Method: MCF7, HeLa, and HT-29 cell cycle analyses were performed by quantifying the DNA content by flow cytometry. Cells in the exponential growth phase at 2 × 10^4 cells/mL were seeded in 24-well plates (1 ml/well). After 24 h incubation, cells were treated with compound 25 at 87.5 or 175 nM. After 24, 48, and 72 h treatments, live and dead cells were collected and fixed in ice-cold ethanol:PBS (7:3) and stored at 4 °C for later use. Cells were rehydrated with phosphate-buffered saline (PBS), treated with 100 µg/mL RNase A (Sigma-Aldrich Co., St. Louis, MO, USA), and stained overnight in darkness at room temperature with 50 µg/mL propidium iodide (PI) (Sigma-Aldrich Co.). Cell cycle profiles were then analysed by flow cytometry using BD Accuri™ C6 Plus Flow Cytometer (BD Biosciences, San José, CA, USA). Data were analysed with BD Accuri™ C6 Software (version 1.0.264.21, BD Biosciences, San José, CA, USA) and compared to control cells treated with 0.5% (v/v) DMSO. Compounds were dissolved in DMSO and the final solvent concentrations never exceeded 0.5% (v/v).

[3] = tested on: microtubule network of MCF7 cells; assay: Immunofluorescence of microtubule network, MCF7; format: cell-based, human; conditions: MCF7, 175 nM, 72 h, confocal microscopy
Method: (§1) MCF7, HeLa, and HT-29 cells were grown on round glass coverslips coated with poly-L-lysine (12 mm diameter). To reach appropriate cell confluence, coverslips were manipulated in 6-well plates (3 coverslips/well) seeding 3 ml/well of cells in the exponential growth phase at 2 × 10^4 cells/mL. After 24 h incubation, cells were treated with compound 25 at 175 nM and incubated for 72 h. Cells were washed with PBS, fixed with 4% formaldehyde in PBS for 10 min, permeabilized with 0.5% Triton X-100 (Boehringer Mannheim, Ingelheimam Rhein, Germany) in PBS for 10 min, and blocked with 10% BSA in PBS for 30 min. Then, coverslips were incubated with anti-α-tubulin mouse monoclonal antibody (diluted 1:200 in 3% BSA/PBS) (Sigma-Aldrich Co.) and anti-SQSTM1/p62 rabbit monoclonal antibody (diluted 1:100 in 3% BSA/PBS) (Abcam) for 1 h 30 min. After PBS washing, coverslips were incubated with fluorescent secondary antibodies Alexa Fluor 488 goat anti-mouse IgG and Alexa Fluor 594 anti-rabbit (both diluted 1:400 in 1% BSA/PBS) (Molecular Probes, Invitrogen, Thermo Fischer Scientific) for 1 h in darkness. […] Cells were analysed by confocal microscopy using a LEICA SP5 microscope DMI-6000V model coupled to a LEICA LAS AF software computer.

[4] = tested on: microtubule network of HT-29 cells; assay: Immunofluorescence of microtubule network, HT-29; format: cell-based, human; conditions: HT-29, 175 nM, 72 h, confocal microscopy
Method: as §1

Compound: COc1ccc(S(=O)(=O)N(CC#N)c2cc(OC)c(Br)cc2OC)cc1 [Compound 25, N-(4-bromo-2,5-dimethoxyphenyl)-N-(cyanomethyl)-4-methoxybenzenesulphonamide]
- IC50 ([1]; 72 h, in the presence of Pgp/MDR1 inhibitor verapamil (10 µM), read-out: Antiproliferative activity IC50 HT-29 Verap): 85 nM
- IC50 ([1]; Homo sapiens, HT-29, 72 h drug exposure, XTT, read-out: Antiproliferative activity IC50 HT-29): 97 nM
- Cells at G2/M phase ([2]; 87.5 nM, 24 h): 82%
- Cells at G2/M phase ([2]; 87.5 nM, 48 h): 54%
- subG0/G1 population ([2]; 87.5 nM, 48 h): 34%
- Cells at G2/M phase ([2]; 87.5 nM, 72 h): 41%
- Cells at G2/M phase ([2]; 175 nM, 24 h): 86%
- Cells at G2/M phase ([2]; 175 nM, 48 h): 48%
- subG0/G1 population ([2]; 175 nM, 48 h): 29%
- Cells at G2/M phase ([2]; 175 nM, 72 h): 49%
- subG0/G1 population ([2]; 72 h, one value printed for 87.5 and 175 nM): 38%
- Effect on microtubule network [3]: disrupted the microtubule network
- Effect on microtubule network [4]: disrupted the microtubule network
